Results: patent US9101609B2, “CD37 immunotherapeutic and combination with bifunctional chemotherapeutic thereof” (EMERGENT PRODUCT DEVELOPMENT SEATTLE, LLC, priority 2008, dated 2015)
“Also recorded” adds a separate entry of the source. Marks after values point to notes of the source that are not given here.

Legend:
[1] = tested on: DOHH2 human tumor xenograft; assay: CAS024 combined with bendamustine in subcutaneous DOHH2 xenografts in SCID mice; format: in vivo; conditions: CAS024 10 μg IV days 0, 4, 8; Bendamustine 10 mg/kg IP days 0, 2, 4, 7, 9
Description: Establishment of tumor xenografts and sorting into treatment groups.
Monitoring and endpoints. Mice were monitored daily by visual inspection. […] Tumor volumes were calculated as described above.

CD37 [2] = target: T1, CD37 (Homo sapiens, UniProt P11049); assay: FACS competitive binding / cross blocking of FITC-conjugated anti-CD37 on BJAB cells; conditions: FIGS. 5A-5E
T1 sequence (P11049 1-281): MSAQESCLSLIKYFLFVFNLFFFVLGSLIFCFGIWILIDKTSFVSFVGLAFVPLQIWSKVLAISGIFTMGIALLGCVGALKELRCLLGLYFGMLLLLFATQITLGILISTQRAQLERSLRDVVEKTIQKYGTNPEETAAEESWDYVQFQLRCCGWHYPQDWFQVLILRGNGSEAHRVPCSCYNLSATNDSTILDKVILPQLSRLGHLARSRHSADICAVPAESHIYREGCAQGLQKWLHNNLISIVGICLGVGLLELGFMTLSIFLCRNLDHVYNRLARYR
Description: FITC labeled antibody conjugates were titrated from 10 ng/mL to 10 μg/mL in an initial binding study to determine the optimal amount to use in the blocking studies. The level chosen was just below saturating amounts, and was kept constant in the subsequent assays, while levels of blocking antibody were increased over a 10-fold range. Data were plotted as percent of maximal binding versus concentration of blocking antibody, so that higher levels indicate less efficient blocking, while lower levels indicate more efficient blocking activity.
For competitive binding assays, 2.5×10^5 BJAB cells were incubated in 96-well V-bottom plates in staining media (PBS with 2% mouse sera) with the FITC-conjugated anti-CD37 mAbs at 1.25 μg/mL in the presence of unconjugated anti-CD37 MAb at the indicated concentrations (2.5, 1.25, 0.6, or 0.3 μg/ml) or staining media for 45 minutes on ice in the dark. Blocking antibodies and FITC labeled antibody conjugates were added to reactions prior to addition of cells. The cells were then washed […] with PBS and fixed with 1% paraformaldehyde (USB, Cleveland, Ohio). The treated cells were analyzed by flow cytometry using a FACsCalibur instrument and CellQuest software (BD Biosciences, San Jose, Calif.). […]

[3] = tested on: chronic lymphocytic leukemia (CLL) cells; conditions: in vitro; cited from earlier work
CD37 [4] = target: T1, CD37; assay: FMAT competition binding assay against labeled CAS-006 on Ramos cells; set-up: CD-37 found on Ramos cells (a B-lymphoblastoid cell line derived from a Burkitt lymphoma); endogenous in cells; host or cells: Ramos cells
From the text: A competition assay was used to compare the binding affinity of different anti-CD37 specific small modular immunopharmaceutical (SMIP) molecules to CD-37 found on Ramos cells (a B-lymphoblastoid cell line derived from a Burkitt lymphoma). An SEC purified chimeric anti-CD37 SMIP molecule (CAS-006, SEQ ID NO:247) was labeled with the FMAT Blue® fluorescence dye (Applied Biosystems) and used as the standard to compete with purified unlabeled chimeric anti-CD37 SMIP molecule (positive control) and purified unlabeled humanized anti-CD37 SMIP test molecules. […] The plates were incubated at room temperature for 30 min and read on an 8200 Cellular Detection System (Applied Biosystems) gated for middle cell size and low signal.
A competition assay as described in Example 4 was used to compare the binding affinity of different mouse-human hybrid anti-CD37 SMIP molecules compared to CAS-024 binding to Ramos cells. An SEC purified chimeric anti-CD37 SMIP molecule (CAS-006, SEQ ID NO:247) was labeled with the FMAT Blue® fluorescence dye (Applied Biosystems) and used as the standard to compete with purified unlabeled chimeric anti-CD37 SMIP molecule (CAS-006, positive control) and purified unlabeled humanized anti-CD37 SMIP test molecules—-CAS-002 (SEQ ID NO:48), CAS-003 (SEQ ID NO:52), CAS-014 (SEQ ID NO:251), CAS-017 (SEQ ID NO:252), and CAS-024 (SEQ ID NO:253).

[5] = tested on: DOHH2 human tumor xenograft; assay: Dose response in established subcutaneous DOHH2 xenograft model in SCID mice; conditions: days 0, 4, 8
Description: The objective of this experiment was to examine the dose response to treatment with CAS-024 in a model of established subcutaneous human tumor (DOHH2) xenograft model in SCID mice.
On day 8 post-tumor inoculation, palpable tumors were apparent in a majority of mice. The tumor-bearing mice were sorted into four groups with equivalent mean tumor volumes (n=14 per group; 2 cages of 5 mice and 1 cage of 4 mice for each group). The day of the sort was defined as day 0. Tumor diameters were determined with a pair of calipers and tumor volumes were calculated using the formula: V=½[length×(width)^2].
Tumor-bearing groups of SCID mice were treated on days 0, 4, and 8 via IP injection of 0.2 mL of PBS containing 200 μg of huIgG (negative control) or 200, 100, 30, 10, or 3 μg of CAS-024. The two lowest dose solutions of CAS-024 were prepared on the day of injection to avoid the need to add a carrier protein to the most dilute solutions.
Dose solutions were prepared in similar volumes and the contents of the tubes were noted on removable labels. An investigator who was not treating or assessing the mice placed a color code on each tube and noted the code and identity of the tube contents in a laboratory notebook. Mice were monitored daily by visual inspection. Weights were determined weekly, and tumor diameters were determined at least 3 times per week (M, W, F) by an observer blinded (see above) to the treatment groups. Tumor volumes were calculated as described above. Mice were euthanized if their tumor volume reached more than 1500 mm^3 (or 1200 mm^3 on Fridays). Death was not an endpoint in the tumor protocols and, unless noted otherwise, “survival” of a mouse was determined by the time it was euthanized due to its tumor volume reaching the predetermined limits.
All statistical analyses were performed using GraphPad Prism software. Significant differences in mean tumor volumes and mean relative tumor volumes were determined using a one-way ANOVA for nonparametric data (Kruskal-Wallis test) with Dunn's multiple comparison post test. To examine differences between each of the CAS-024 treated groups and the huIgG group, all groups were compared. For comparisons between the CAS-024 groups only, the huIgG group was excluded. In addition, the high and middle dose (200, 100, and 30 μg) groups were analyzed as a one data set, and the middle and low dose (30, 10, and 3 μg) groups were analyzed as another data set. Significant differences in survival of mice over time were determined using Kaplan-Meier survival analysis with a log-rank test for comparing survival curves. Significant differences in the incidence of tumor-free mice were determined using Fisher's exact test. p values<0.05 were considered significant.

SU-DHL-6 cells = assay: SU-DHL-6 growth inhibition (ATPlite), combination index; format: cell-based, human
Description: (§1) The final volume in each well was 150 μL.

[6] = tested on: DOHH2 human tumor xenograft; assay: CAS-024 and Rituxan as single agents in established DOHH2 xenograft model in SCID mice; format: in vivo; conditions: for Death (other than for Tumor Size Sacrifice) / Median Survival Time: 200 μg IP days 0, 4, 8; for Median Survival Time: cumulative 600 μg; for mean tumor volume compared with human IgG treated group: 200 μg IP, day 4 through day 11
Description: The objective of this study was to examine the efficacy of CAS-024 and RITUXAN® (rituximab) as single agents in a model of established human tumor (DOHH2) xenografts in SCID mice.
Mice were monitored daily by visual inspection. […] Tumor volumes were calculated as described above. Tumor volumes on the last day that all mice were alive in each group were also expressed in terms of tumor volumes relative to day 0, using the formula: […]

Rec-1 cells [7] = assay: Rec-1 growth inhibition (ATP viable cell detection), combination index with chemotherapeutic agents; format: cell-based, human; conditions: 96 hours
Description: Rec-1 cells, a CD37+ human B cell line established from a patient with mantle cell lymphoma, were tested for growth inhibition in response to crosslinked CAS-024 in the presence or absence of doxorubicin, vincristine, or fludarabine (see FIG. 7). CAS-024 was preincubated with anti-human IgG F(ab)′2 to crosslink the protein. Cells were cultured with medium alone or with medium containing various concentrations of the crosslinked CAS-024 protein, in the presence or absence of various concentrations of doxorubicin, vincristine, or fludarabine. Cultures were incubated for 96 hours and growth inhibition was assessed using an ATP viable cell detection system (i.e., viable cells quantified by ATP release).
A numerical value, assigned to each drug combination at predefined dose levels, enabled quantitative drug/drug interaction comparisons between different drug combinations. Results were expressed as combination indices (CI) vs. effect level, in which effect level represented percent inhibition of cell growth. The mean CI±SEM for each effect level was averaged over three experiments. A CI<1.0 was considered synergy, CI=1.0 additivity, and CI>1.0 antagonism.

Rec-1 cells [8] = assay: Rec-1 growth inhibition (ATPlite), combination index with bendamustine; format: cell-based, human; conditions: crosslinked CAS024 combined with bendamustine; 96 hr
Description: as §1

## Cn1c(CCCC(=O)O)nc2cc(N(CCCl)CCCl)ccc21 [Bendamustine, 4-[5-[Bis(2-chloroethyl)amino]-1-methylbenzimidazol-2-yl]butanoic acid, reference compound]
[1]
  Median Survival Time: 17 days
  clinical signs of toxicity: scruffy coats and diarrhea

## CAS-006: chimeric anti-CD37 SMIP protein (mVLmVH) with variable regions of mouse mAb G28-1, SEQ ID NO:247
CD37 [2]
  blocking activity (inhibition of binding of FITC-conjugated anti-CD37): highest level of blocking activity
[3]
  combination effect with fludarabine on killing of CLL cells: acts synergistically

## G28-1 VH (M99F, Y102S)—VL (T25A) scFv (SSC-P) H WCH2 WCH3 [CAS-024]
CD37 [4]; FIG. 3
  greater affinity for CD37 than humanized VLVH anti-CD37 SMIP molecules with 16 amino acid linker: ≤ 4 fold
CD37 [4]; competition with FMAT Blue labeled CAS-006
  binding affinity for CD37 compared with parent CAS-006: substantially the same affinity; also recorded: same binding affinity as CAS-006
[5]; 3 μg per IP injection
  Death (Not Due to Large Tumor Volume): 0/14
[5]; 3 μg per IP injection, cumulative 9 μg
  Median Survival Time: 19 days
[5]; 10 μg per IP injection
  Death (Not Due to Large Tumor Volume): 0/14
[5]; 10 μg per IP injection, cumulative 30 μg
  Median Survival Time: 28 days
[5]; 30 μg per IP injection
  Death (Not Due to Large Tumor Volume): 0/14
[5]; 30 μg per IP injection, cumulative 90 μg
  Median Survival Time: 35 days
[5]; 100 μg per IP injection
  Death (Not Due to Large Tumor Volume): 1/14^h
[5]; 100 μg per IP injection, cumulative 300 μg
  Median Survival Time: Undefined
[5]; 200 μg per IP injection
  Death (Not Due to Large Tumor Volume): 0/14
[5]; 200 μg per IP injection, cumulative 600 μg
  Median Survival Time: Undefined^ef
[5]; 3 to 200 μg per IP injection
  effect on the growth of DOHH2 tumors: dose-dependent inhibitory effect
SU-DHL-6 cells; CAS-024 combined with chlorambucil
  combination effect on cell growth (CI): did not result in synergistic inhibitory effects
SU-DHL-6 cells; crosslinked CAS024 combined with bendamustine, 96 hr
  combination effect on cell growth (CI): synergistically inhibited
[1]
  Median Survival Time: 17^b Days
  clinical signs of toxicity: No clinical signs of toxicity
[6]
  Death (other than for Tumor Size Sacrifice): 1/15^f
  Median Survival Time: Undefined^d,e
  mean tumor volume compared with human IgG treated group: significantly lower than that of the human IgG treated group
Rec-1 cells [7]; crosslinked CAS-024 combined with doxorubicin
  combination index (CI): additive
Rec-1 cells [7]; crosslinked CAS-024 combined with fludarabine
  combination index (CI): < 1.0
Rec-1 cells [7]; crosslinked CAS-024 combined with vincristine
  combination index (CI): < 1.0
Rec-1 cells [8]
  combination effect on target cell growth (CI): synergistic inhibitory effects

## rituximab [Rituxan ®, reference compound]
[6]
  Death (other than for Tumor Size Sacrifice): 0/15
  Median Survival Time: 43 days
  mean tumor volume compared with human IgG treated group: significantly lower than that of the human IgG treated group
